From ChEMBL document CHEMBL3045962, “Synthesis and antitumor evaluation of some novel pyrrolizine derivatives” (Med Chem Res, 2012) come the findings set out here.

In the assay the test system is MCF7. Description: Cytotoxicity against Homo sapiens (human) MCF7 cells after 48 hr by neutral red assay. The assay is classed as functional, cell-based.
What is called IC50 is the concentration at which inhibition is half-maximal. A low value points to greater potency in that assay. The compound `N#CC1=C2CCCN2C(O)(N2CCOCC2)C1N1C(=O)CSC1c1ccc(Cl)cc1` (stereo not drawn) came in with an IC50 of 18 µM. That is a double-digit micromolar value.

For `N#CC1=C2CCCN2C(O)(N2CCOCC2)C1/N=C/NNC(=O)c1ccncc1` (stereo not drawn), the concentration for half-maximal inhibition (IC50) was determined as 29 µM.

Compound `N#CC1=C2CCCN2C(O)(N2CCOCC2)C1/N=C/N` (stereo not drawn) returned an IC50 of 26 µM. This IC50 and that of the compound before are within 1.5-fold of each other.

Compound `NC1=NC=NC2C1=C1CCCN1C2(O)N1CCOCC1` (stereo not drawn) had an IC50 of 35 µM. This IC50 and that of the compound before are within 1.5-fold of each other.

On to `N#CC1=C2CCCN2C(O)(N2CCOCC2)C1/N=C/NNC(=O)c1ccccc1` (stereo not drawn), for which the IC50 amounted to 18 µM.

Compound `O=C1NC(c2ccccc2)=NC2C1=C1CCCN1C2(O)N1CCOCC1` (stereo not drawn) registered an IC50 of 16 µM.

For the compound `N#CC1=C2CCCN2C(O)(N2CCOCC2)C1NC(=O)Nc1ccccc1` (stereo not drawn), the IC50 is 44 µM.

Regarding `O=C1NC=NC2C1=C1CCCN1C2(O)N1CCOCC1` (stereo not drawn), the IC50 stood at 30 µM. The IC50 values of the last two compounds are within 1.5-fold of each other.

On to `CC(=O)C1=C(N)C2=C3CCCN3C(O)(N3CCOCC3)C2N=C1C` (stereo not drawn), for which the IC50 came out at 38 µM.

Turning to `CN(C)c1ccc(C2SCC(=O)N2C2C(C#N)=C3CCCN3C2(O)N2CCOCC2)cc1` (stereo not drawn), the IC50 worked out at 19 µM.

`CC(=O)NC1=NC=NC2C1=C1CCCN1C2(O)N1CCOCC1` (stereo not drawn) had a 50% inhibitory concentration (IC50) of 29 µM.

As to `N#CC1=C2CCCN2C(O)(N2CCOCC2)C1/N=C/c1ccc([N+](=O)[O-])cc1` (stereo not drawn), the concentration for half-maximal inhibition (IC50) turned out to be 19 µM. This IC50 lies about 1.5-fold lower than the previous one.

`CC(=O)C/C(C)=N/C1C(C#N)=C2CCCN2C1(O)N1CCOCC1` (stereo not drawn): the IC50 came to 42 µM.

In the case of `N#CC1=C2CCCN2C(O)(N2CCOCC2)C1N1C(=O)CSC1c1ccc([N+](=O)[O-])cc1` (stereo not drawn), the IC50 came out at 55 µM.

`CCNC(=S)NC1C(C#N)=C2CCCN2C1(O)N1CCOCC1` (stereo not drawn) came in with a 50% inhibitory concentration (IC50) of 37 µM.

For `CC(=O)NC1C(C#N)=C2CCCN2C1(O)N1CCOCC1` (stereo not drawn), the IC50 was determined as 29 µM.

`N=C1C2=C3CCCN3C(O)(N3CCOCC3)C2NC(=O)N1c1ccccc1` (stereo not drawn) came in with an IC50 of 18 µM.

Compound `CCOC=NC1C(C#N)=C2CCCN2C1(O)N1CCOCC1` (stereo not drawn) showed an IC50 of 41 µM.

`N#CC1=C2CCCN2C(O)(N2CCOCC2)C1N` (stereo not drawn) gave an IC50 of 35 µM. The IC50 values of the last two compounds are within 1.5-fold of each other.

`C/C(CC(=O)c1ccccc1)=N\C1C(C#N)=C2CCCN2C1(O)N1CCOCC1` (stereo not drawn) gave an IC50 of 28 µM.

For `N#CC1=C2CCCN2C(O)(N2CCOCC2)C1NC(=O)c1ccccc1` (stereo not drawn), the IC50 was 34 µM.

Regarding `O=C(NC1=NC=NC2C1=C1CCCN1C2(O)N1CCOCC1)c1ccccc1` (stereo not drawn), the half-inhibitory concentration (IC50) came to 21 µM.

`COc1cccc2c1C(=O)c1c(O)c3c(c(O)c1C2=O)C[C@@](O)(C(=O)CO)C[C@@H]3O[C@H]1C[C@H](N)[C@H](O)[C@H](C)O1` [DOXORUBICIN] showed a half-inhibitory concentration (IC50) of 63 µM.

As for `O=C(CCl)NC1=NC=NC2C1=C1CCCN1C2(O)N1CCOCC1` (stereo not drawn), the half-inhibitory concentration (IC50) was 23 µM.

In turn, `CCN1C(=N)C2=C3CCCN3C(O)(N3CCOCC3)C2NC1=S` (stereo not drawn) showed an IC50 of 34 µM. This IC50 and that of the compound before are within 1.5-fold of each other.

`COc1ccc(/C=N/C2C(C#N)=C3CCCN3C2(O)N2CCOCC2)cc1` (stereo not drawn) had an IC50 of 16 µM.

In the case of `O=C1NC(NNC(=O)c2ccncc2)=NC2C1=C1CCCN1C2(O)N1CCOCC1` (stereo not drawn), the IC50 was 20 µM.

Compound `N=C1C2=C3CCCN3C(O)(N3CCOCC3)C2NC(=O)N1c1ccc(Cl)cc1` (stereo not drawn) returned an IC50 of 37 µM.

Turning to `CCOC(=O)NC1=NC=NC2C1=C1CCCN1C2(O)N1CCOCC1` (stereo not drawn), the IC50 amounted to 25 µM. The IC50 values of the last two compounds are within 1.5-fold of each other.

`COc1ccc(C2SCC(=O)N2C2C(C#N)=C3CCCN3C2(O)N2CCOCC2)cc1` (stereo not drawn) showed an IC50 of 35 µM.

Consider `O=C1NC(NNC(=O)c2ccccc2)=NC2C1=C1CCCN1C2(O)N1CCOCC1` (stereo not drawn), for which the IC50 amounted to 19 µM. This IC50 is about 1.8-fold lower than that of the compound before.

Compound `CCOC(=O)NC1C(C#N)=C2CCCN2C1(O)N1CCOCC1` (stereo not drawn) showed an IC50 of 27 µM.

On to `CC(=O)CC(=O)NC1C(C#N)=C2CCCN2C1(O)N1CCOCC1` (stereo not drawn), for which the IC50 was determined as 22 µM.

Turning to `CC1=NC2C(=C3CCCN3C2(O)N2CCOCC2)C(=O)N1` (stereo not drawn), the concentration for half-maximal inhibition (IC50) amounted to 36 µM. This IC50 lies about 1.6-fold higher than the previous one.

Consider `N#CC1=C2CCCN2C(O)(N2CCOCC2)C1/N=C/c1ccc(Cl)cc1` (stereo not drawn), for which the IC50 came to 45 µM.

Regarding `CC(=O)C1=C(N)C2=C3CCCN3C(O)(N3CCOCC3)C2NC1=O` (stereo not drawn), the IC50 stood at 29 µM. Against the preceding compound, the IC50 is about 1.6-fold lower.

`CN(C)c1ccc(/C=N/C2C(C#N)=C3CCCN3C2(O)N2CCOCC2)cc1` (stereo not drawn) had an IC50 of 37 µM. The IC50 values of the last two compounds are within 1.5-fold of each other.

Take `N#CC1=C2CCCN2C(O)(N2CCOCC2)C1NC(=O)CCl` (stereo not drawn): the IC50 is 23 µM.
